Values joined by “and” are separate entries in the source; they are usually repeats but may differ in a detail not shown here. Identical values can stand only once.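 96-well plates; 48 h exposure; 5 concentrations. Endpoints by linear interpolation between flanking doses. Not reached: highest tested concentration assigned. Here, GI50 denotes the concentration required for 50% inhibition of growth. Definition used: TGI = concentration required for complete inhibition of growth.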
Assays:
Test in all cases: inhibition of tumour cell growth, NCI panel, 48 h
OVCAR-8 ovarian = system: OVCAR-8 ovarian
MCF7 breast = system: MCF7 breast
T-47D breast = system: T-47D breast
SK-MEL-2 melanoma = system: SK-MEL-2 melanoma
SF-268 CNS = system: SF-268 CNS
UACC-62 melanoma = system: UACC-62 melanoma
NCI-H522 lung = system: NCI-H522 lung
SR leukemia = system: SR leukemia
HT29 colon = system: HT29 colon
SNB-75 CNS = system: SNB-75 CNS

CN(C(=O)C(C)(C)C)c1ccccc1I(=O)=O
GI50 (OVCAR-8 ovarian): > 100 µM
TGI (OVCAR-8 ovarian): > 100 µM
GI50 (MCF7 breast): > 100 µM
TGI (MCF7 breast): > 100 µM
GI50 (T-47D breast): 38.3 µM
TGI (T-47D breast): > 100 µM
GI50 (SK-MEL-2 melanoma): > 100 µM
TGI (SK-MEL-2 melanoma): > 100 µM
GI50 (SF-268 CNS): > 100 µM
TGI (SF-268 CNS): > 100 µM
GI50 (UACC-62 melanoma): > 100 µM
TGI (UACC-62 melanoma): > 100 µM
GI50 (NCI-H522 lung): 16.1 µM
TGI (NCI-H522 lung): 30 µM
GI50 (SR leukemia): 3.15 µM
TGI (SR leukemia): 26.4 µM
GI50 (HT29 colon): > 100 µM
TGI (HT29 colon): > 100 µM
GI50 (SNB-75 CNS): > 100 µM
TGI (SNB-75 CNS): > 100 µM

Cc1ccsc1C(NC(=O)c1ccccc1)c1cc(Cl)c2cccnc2c1O (stereo not given)
GI50 (OVCAR-8 ovarian): 0.405 µM
TGI (OVCAR-8 ovarian): 24 µM
GI50 (MCF7 breast): 0.379 µM
TGI (MCF7 breast): 16.2 µM
GI50 (T-47D breast): 0.426 µM
TGI (T-47D breast): 7.3 µM
GI50 (SK-MEL-2 melanoma): 0.609 µM
TGI (SK-MEL-2 melanoma): 8.75 µM
GI50 (SF-268 CNS): 0.6 µM
TGI (SF-268 CNS): 12.1 µM
GI50 (UACC-62 melanoma): 0.339 µM
TGI (UACC-62 melanoma): 5.22 µM
GI50 (NCI-H522 lung): 0.271 µM
TGI (NCI-H522 lung): 2.11 µM
GI50 (SR leukemia): 0.398 µM
TGI (SR leukemia): 12.3 µM
GI50 (HT29 colon): 0.548 µM
TGI (HT29 colon): 20.7 µM
GI50 (SNB-75 CNS): 0.32 µM
TGI (SNB-75 CNS): 14.9 µM

CC(C)[C@@H](C(=O)O[C@@H]1/C=C/C(=O)O[C@@H](C)CCC/C=C/[C@@H]2C[C@H](O)C[C@H]21)N(C)C
GI50 (OVCAR-8 ovarian): 18.1 µM
TGI (OVCAR-8 ovarian): > 83.2 µM
GI50 (MCF7 breast): 11.9 µM
TGI (MCF7 breast): 43.1 µM
GI50 (T-47D breast): 30 µM
TGI (T-47D breast): > 100 µM
GI50 (SK-MEL-2 melanoma): 23.1 µM
TGI (SK-MEL-2 melanoma): > 68.3 µM
GI50 (SF-268 CNS): 7.33 µM
TGI (SF-268 CNS): > 45 µM
GI50 (UACC-62 melanoma): 21.7 µM
TGI (UACC-62 melanoma): > 72.1 µM
GI50 (NCI-H522 lung): 26.6 µM
TGI (NCI-H522 lung): > 75 µM
GI50 (SR leukemia): 14.9 µM
TGI (SR leukemia): 38.1 µM
GI50 (HT29 colon): 5.16 µM
TGI (HT29 colon): 27.3 µM
GI50 (SNB-75 CNS): 2.89 µM
TGI (SNB-75 CNS): 27.7 µM

CC1=CC2(C)/C=C(C)/C=C\CC(O)/C=C3/C=CC(=C4C(=O)OC2(CC1C)C4=O)OC3 (stereo not given)
GI50 (OVCAR-8 ovarian): 2.12 µM
TGI (OVCAR-8 ovarian): 9.01 µM
GI50 (MCF7 breast): 2.11 µM
TGI (MCF7 breast): 20.7 µM
GI50 (T-47D breast): 1.63 µM
TGI (T-47D breast): 6.52 µM
GI50 (SK-MEL-2 melanoma): 2.61 µM
TGI (SK-MEL-2 melanoma): 6.51 µM
GI50 (SF-268 CNS): 2.09 µM
TGI (SF-268 CNS): 4.75 µM
GI50 (UACC-62 melanoma): 3.3 µM
TGI (UACC-62 melanoma): 10.8 µM
GI50 (NCI-H522 lung): 2.46 µM
TGI (NCI-H522 lung): 8.55 µM
GI50 (SR leukemia): 1.59 µM
TGI (SR leukemia): > 100 µM
GI50 (HT29 colon): 2.4 µM
TGI (HT29 colon): > 26.4 µM
GI50 (SNB-75 CNS): 2.84 µM
TGI (SNB-75 CNS): 17.3 µM

COc1ccc(C(=O)/C=C/c2ccc(OCc3cccc(C(F)(F)F)c3)c(OC)c2)cc1OC
GI50 (OVCAR-8 ovarian): 48.8 µM
TGI (OVCAR-8 ovarian): > 1000 µM
GI50 (MCF7 breast): 27.4 µM
TGI (MCF7 breast): > 1000 µM
GI50 (T-47D breast): 32.1 µM
TGI (T-47D breast): > 1000 µM
GI50 (SK-MEL-2 melanoma): 187 µM
TGI (SK-MEL-2 melanoma): > 1000 µM
GI50 (SF-268 CNS): 76.6 µM
TGI (SF-268 CNS): > 1000 µM
GI50 (UACC-62 melanoma): 52.2 µM
TGI (UACC-62 melanoma): > 1000 µM
GI50 (NCI-H522 lung): 39.2 µM
TGI (NCI-H522 lung): > 1000 µM
GI50 (SR leukemia): 33.8 µM
TGI (SR leukemia): > 1000 µM
GI50 (HT29 colon): 52.1 µM
TGI (HT29 colon): > 1000 µM
GI50 (SNB-75 CNS): 31.6 µM
TGI (SNB-75 CNS): > 1000 µM

C=CCc1c(O)c(C(=O)/C=C/c2ccc(Cl)cc2)c(OC)c2ccoc12
GI50 (OVCAR-8 ovarian): 3.04 µM
TGI (OVCAR-8 ovarian): 12 µM
GI50 (MCF7 breast): 2.51 µM
TGI (MCF7 breast): 11.4 µM
GI50 (T-47D breast): 3.29 µM
TGI (T-47D breast): 19 µM
GI50 (SK-MEL-2 melanoma): 3.97 µM
TGI (SK-MEL-2 melanoma): 14.7 µM
GI50 (SF-268 CNS): 3.25 µM
TGI (SF-268 CNS): 12 µM
GI50 (UACC-62 melanoma): 2.88 µM
TGI (UACC-62 melanoma): 10.1 µM
GI50 (NCI-H522 lung): 1.88 µM
TGI (NCI-H522 lung): 5.71 µM
GI50 (SR leukemia): 2.77 µM
TGI (SR leukemia): 9.11 µM
GI50 (HT29 colon): 1.89 µM
TGI (HT29 colon): 3.98 µM
GI50 (SNB-75 CNS): 2.01 µM
TGI (SNB-75 CNS): 9.11 µM

Cc1c(C(=O)Nc2ccc(N3C[C@@H](C)O[C@@H](C)C3)nc2)cccc1-c1ccc(OC(F)(F)F)cc1
GI50 (OVCAR-8 ovarian): 7.9 µM and 10.8 µM
TGI (OVCAR-8 ovarian): 30.9 µM and 46.3 µM
GI50 (MCF7 breast): 8.25 µM and 15.4 µM
TGI (MCF7 breast): 31 µM and 49 µM
GI50 (T-47D breast): 2.69 µM and 2.41 µM
TGI (T-47D breast): 25.2 µM and 17.6 µM
GI50 (SK-MEL-2 melanoma): 13.1 µM and 21.6 µM
TGI (SK-MEL-2 melanoma): 44.9 µM and > 100 µM
GI50 (SF-268 CNS): 7.22 µM and 5.25 µM
TGI (SF-268 CNS): 28.9 µM and 25.9 µM
GI50 (UACC-62 melanoma): 9.08 µM and 12.7 µM
TGI (UACC-62 melanoma): 27.6 µM and 35.7 µM
GI50 (NCI-H522 lung): 9.14 µM and 10.2 µM
TGI (NCI-H522 lung): 33.9 µM and 34.9 µM
GI50 (SR leukemia): 28.2 µM and > 100 µM
TGI (SR leukemia): > 100 µM
GI50 (HT29 colon): 11.9 µM and 15.1 µM
TGI (HT29 colon): 41.7 µM and 64.4 µM
GI50 (SNB-75 CNS): 10.1 µM and 12.9 µM
TGI (SNB-75 CNS): 25.8 µM and 32.5 µM

Oc1c(C(c2ccc(F)cc2)N2CCCCC2)ccc2cncnc12 (stereo not given)
GI50 (OVCAR-8 ovarian): 0.453 µM
TGI (OVCAR-8 ovarian): > 100 µM
GI50 (MCF7 breast): 0.344 µM
TGI (MCF7 breast): > 39.4 µM
GI50 (T-47D breast): 0.612 µM
TGI (T-47D breast): 97 µM
GI50 (SK-MEL-2 melanoma): 0.527 µM
TGI (SK-MEL-2 melanoma): 5.86 µM
GI50 (SF-268 CNS): 0.484 µM
TGI (SF-268 CNS): > 100 µM
GI50 (UACC-62 melanoma): 0.476 µM
TGI (UACC-62 melanoma): 5.11 µM
GI50 (NCI-H522 lung): 0.353 µM
TGI (NCI-H522 lung): 10.2 µM
GI50 (SR leukemia): 0.675 µM
TGI (SR leukemia): > 100 µM
GI50 (HT29 colon): 0.747 µM
TGI (HT29 colon): > 100 µM
GI50 (SNB-75 CNS): 0.246 µM
TGI (SNB-75 CNS): 3.95 µM

CC1Cc2c(Cl)ncnc2N(C)c2ccccc21 (stereo not given)
GI50 (OVCAR-8 ovarian): 3.42 µM
TGI (OVCAR-8 ovarian): 27.3 µM
GI50 (MCF7 breast): 3.17 µM
TGI (MCF7 breast): 14.5 µM
GI50 (T-47D breast): 4.29 µM
TGI (T-47D breast): 37.4 µM
GI50 (SK-MEL-2 melanoma): 2.61 µM
TGI (SK-MEL-2 melanoma): 6.1 µM
GI50 (SF-268 CNS): 2.77 µM
TGI (SF-268 CNS): 91.6 µM
GI50 (UACC-62 melanoma): 3.32 µM
TGI (UACC-62 melanoma): 12.8 µM
GI50 (NCI-H522 lung): 1.76 µM
TGI (NCI-H522 lung): 3.7 µM
GI50 (SR leukemia): 3.33 µM
TGI (SR leukemia): 32.6 µM
GI50 (HT29 colon): 2.47 µM
TGI (HT29 colon): 7.27 µM
GI50 (SNB-75 CNS): 0.352 µM
TGI (SNB-75 CNS): 33.5 µM

C[C@]12CCC(=O)C=C1C[C@@H](O)[C@@H]1[C@@H]2CC[C@@]2(C)[C@H]1CC[C@]2(C)O
TGI (OVCAR-8 ovarian): > 100 µM
TGI (MCF7 breast): > 100 µM
TGI (T-47D breast): > 100 µM
TGI (SK-MEL-2 melanoma): > 100 µM
TGI (SF-268 CNS): > 100 µM
TGI (UACC-62 melanoma): > 100 µM
TGI (NCI-H522 lung): > 100 µM
TGI (SR leukemia): > 100 µM
TGI (HT29 colon): > 100 µM
TGI (SNB-75 CNS): > 100 µM

CCOC(=O)N1CCC(N=C2CSc3nnc(-c4cc(C(F)(F)F)cc(C(F)(F)F)c4)n3N2)CC1
GI50 (OVCAR-8 ovarian): 2.44 µM
TGI (OVCAR-8 ovarian): 6.25 µM
GI50 (MCF7 breast): 2.05 µM
TGI (MCF7 breast): 4.98 µM
GI50 (T-47D breast): 2.6 µM
TGI (T-47D breast): 6.82 µM
GI50 (SK-MEL-2 melanoma): 2 µM
TGI (SK-MEL-2 melanoma): 3.6 µM
GI50 (SF-268 CNS): 2.23 µM
TGI (SF-268 CNS): 4.86 µM
GI50 (UACC-62 melanoma): 1.64 µM
TGI (UACC-62 melanoma): 3.36 µM
GI50 (NCI-H522 lung): 2.27 µM
TGI (NCI-H522 lung): 4.61 µM
GI50 (SR leukemia): 2.39 µM
TGI (SR leukemia): 6.23 µM
GI50 (HT29 colon): 1.97 µM
TGI (HT29 colon): 3.65 µM
GI50 (SNB-75 CNS): 1.92 µM
TGI (SNB-75 CNS): 5.54 µM

COc1cc2c(cc1OC)C(Cl)C(c1ccc(Br)cc1)=C2Cl (stereo not given)
TGI (OVCAR-8 ovarian): 26.1 µM
TGI (MCF7 breast): 21.2 µM
TGI (T-47D breast): 15.1 µM
TGI (SK-MEL-2 melanoma): 22.5 µM
TGI (SF-268 CNS): 29.4 µM
TGI (UACC-62 melanoma): 50.6 µM
TGI (NCI-H522 lung): 12.8 µM
TGI (SR leukemia): > 100 µM
TGI (HT29 colon): 28.5 µM
TGI (SNB-75 CNS): 27.7 µM

CC12CCC(C1)C(C)(C)C2OC(=O)c1ccccc1N (stereo not given)
TGI (OVCAR-8 ovarian): 38.5 µM
TGI (MCF7 breast): 31.8 µM
TGI (T-47D breast): 32.1 µM
TGI (SK-MEL-2 melanoma): 29.5 µM
TGI (SF-268 CNS): 31.6 µM
TGI (UACC-62 melanoma): 29.2 µM
TGI (NCI-H522 lung): 22.7 µM
TGI (SR leukemia): 25.8 µM
TGI (HT29 colon): 29.1 µM
TGI (SNB-75 CNS): 35.1 µM

Reference: PubChem BioAssay (NCI)
